Where a name gives a salt, the structure may show the parent alone.

This passage reports IC50 results from patent US10047096B2, “Substituted pyridobenzodiazepinone-derivatives and use thereof” (Bayer Pharma Aktiengesellschaft, priority 2014, dated 2018).

In the first experiment the target is human PDGFRβ (Homo sapiens (Human), UniProt P09619). The experiment in a line: PDGFRβ kinase assay (PDGFRβ-HTRF). The settings on record: 10 μM ATP; some mean values from multiple determinations. The format is biochemical. As for the experimental part: The PDGFRβ-inhibitory activity of the inventive compounds was determined in the PDGFRβ-HTRF assay described hereinafter.
Sequence of human PDGFRβ (P09619 561-1106): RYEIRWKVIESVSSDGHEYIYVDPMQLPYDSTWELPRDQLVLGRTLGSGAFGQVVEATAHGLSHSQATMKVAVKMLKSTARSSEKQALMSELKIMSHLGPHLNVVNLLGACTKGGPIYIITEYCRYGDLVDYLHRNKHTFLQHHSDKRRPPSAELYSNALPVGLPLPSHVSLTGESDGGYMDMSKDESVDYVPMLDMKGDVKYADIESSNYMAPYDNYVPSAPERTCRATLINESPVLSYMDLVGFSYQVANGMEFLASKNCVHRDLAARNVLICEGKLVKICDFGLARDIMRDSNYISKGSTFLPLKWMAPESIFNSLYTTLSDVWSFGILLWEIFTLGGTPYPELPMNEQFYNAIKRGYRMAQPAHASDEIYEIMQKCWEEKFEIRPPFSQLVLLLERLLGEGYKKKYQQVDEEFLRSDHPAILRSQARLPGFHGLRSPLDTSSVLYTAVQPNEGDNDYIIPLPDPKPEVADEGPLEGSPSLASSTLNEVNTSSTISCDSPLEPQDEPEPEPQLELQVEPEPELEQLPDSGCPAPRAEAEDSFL
The kinase used was a recombinant fusion protein composed of N-terminal GST and a C-terminal fragment of human PDGFRβ (amino acids R561-L1106), expressed in baculovirus-infected insect cells (Sf9) and purified by affinity chromatography (from ProQinase GmbH, Freiburg, Germany). The substrate used for the kinase reaction was biotinylated poly-Glu,Tyr (4:1) copolymer (from Cisbio Bioassays, Codolet, France).
For the assay, 50 nl of a 100-fold concentrated solution of the test substance in DMSO was pipetted into a black “low-volume 384 well” microtitre plate (from Greiner Bio-One, Frickenhausen, Germany), then 2 μl of a solution of PDGFRβ in assay buffer [50 mM HEPES/NaOH pH 7.5, 10 mM MgCl2, 2.5 mM dithiothreitol, 0.01% (v/v) Triton-X100 (from Sigma)] was added and the mixture was incubated for 15 min, in order to enable preliminary binding of the substance to the enzyme before the kinase reaction. […] The resulting mixture was incubated at 22° C. for 1 h to allow formation of a complex of the biotinylated phosphorylated substrate and the detection reagents.
Subsequently, the amount of the phosphorylated substrate was evaluated by measuring the resonance energy transfer from the PT66-Eu chelate to the streptavidin-XL665. […] The IC50 values were calculated by a 4-parameter fit.
For orientation: Time-resolved FRET reads energy transfer from a long-lived donor to a nearby acceptor.
Turning to `Cc1ccc(O)cc1Nc1ccnc2c1C(=O)Nc1cc(CNCCN(C)C)ccc1N2` [Example 156], the IC50 (usually the concentration at which inhibition is half-maximal) is 3.31 nM.

In the case of `Cc1cc(F)c(Nc2ccnc3c2C(=O)Nc2cc(CN4CC(=O)N(C(C)C)C(C)(C)C4)ccc2N3)cc1O` [Example 196, 4-[(2-Fluoro-5-hydroxy-4-methylphenyl)amino]-8-[(4-isopropyl-3,3-dimethyl-5-oxopiperazin-1-yl)methyl]-6,11-dihydro-5H-pyrido[2,3-b][1,5]benzodiazepin-5-one], the midpoint of inhibition, the IC50, lay at 9.38 nM.

`Cc1cc(F)c(Nc2ccnc3c2C(=O)Nc2cc(C(=O)N4CCC(CCO)C4)ccc2N3)cc1O` (racemic) [Example 181, rac-4-[(2-Fluoro-5-hydroxy-4-methylphenyl)amino]-8-{[3-(2-hydroxyethyl)pyrrolidin-1-yl]carbonyl}-6,11-dihydro-5H-pyrido[2,3-b][1,5]benzodiazepin-5-one] gave a concentration for half-maximal inhibition (IC50) of 8.91 nM.

`Cc1ccc(O)cc1Nc1ccnc2c1C(=O)Nc1cc(CNCCN3CCC(C)CC3)ccc1N2` [Example 110] displayed a half-maximal inhibitory concentration (IC50) of 3.29 nM.

Consider `Cc1ccc(O)cc1Nc1ccnc2c1C(=O)Nc1cc(CNCCN3CCCCCC3)ccc1N2` [Example 111], for which inhibition was half-maximal at 4.03 nM (IC50).

`Cc1cc(F)c(Nc2ccnc3c2C(=O)Nc2cc(CN4CCC(C)(C)CC4)ccc2N3)cc1O` [Example 56, 8-[(4,4-Dimethylpiperidin-1-yl)methyl]-4-[(2-fluoro-5-hydroxy-4-methylphenyl)amino]-6,11-dihydro-5H-pyrido[2,3-b][1,5]benzodiazepin-5-one] showed a 50% inhibitory concentration (IC50) of 1.49 nM.

Molecule `Cc1ccc(O)cc1Nc1ccnc2c1C(=O)Nc1cc(CNC3CCOC3)ccc1N2` (centres unmarked) [Example 99] returned an IC50 of 2.97 nM.

`Cc1cc(F)c(Nc2ccnc3c2C(=O)Nc2cc(CN4CC[C@@H](N(C)C)C4)ccc2N3)cc1O` [Example 217, 8-{[(3R)-3-(Dimethylamino)pyrrolidin-1-yl]methyl}-4-[(2-fluoro-5-hydroxy-4-methylphenyl)amino]-6,11-dihydro-5H-pyrido[2,3-b][1,5]benzodiazepin-5-one]: the concentration for half-maximal inhibition (IC50) turned out to be 3.39 nM.

`Cc1cc(F)c(Nc2ccnc3c2C(=O)Nc2cc(CN4CC[C@H](N)C4)ccc2N3)cc1O` [Example 215, 8-{[(3S)-3-Aminopyrrolidin-1-yl]methyl}-4-[(2-fluoro-5-hydroxy-4-methylphenyl)amino]-6,11-dihydro-5H-pyrido[2,3-b][1,5]benzodiazepin-5-one]: half-maximal inhibition (IC50) required 2.06 nM.

For `Cc1cc(F)c(Nc2ccnc3c2C(=O)Nc2cc(CN4CCC(O)C(C)(C)C4)ccc2N3)cc1O` (racemic) [Example 166, rac-4-[(2-Fluoro-5-hydroxy-4-methylphenyl)amino]-8-[(4-hydroxy-3,3-dimethylpiperidin-1-yl)methyl]-6,11-dihydro-5H-pyrido[2,3-b][1,5]benzodiazepin-5-one], the 50% inhibitory concentration (IC50) stood at 5.02 nM.

In turn, `Cc1ccc(O)cc1Nc1ccnc2c1C(=O)Nc1cc(CNCCN3CCCC3=O)ccc1N2` [Example 141] had a 50% inhibitory concentration (IC50) of 3.48 nM.

`Cc1cc(F)c(Nc2ccnc3c2C(=O)Nc2cc(C(=O)N4CCCC(O)C4)ccc2N3)cc1O` (racemic) [Example 82, rac-4-[(2-Fluoro-5-hydroxy-4-methylphenyl)amino]-8-[(3-hydroxypiperidin-1-yl)carbonyl]-6, 11-dihydro-5H-pyrido[2,3-b][1,5]benzodiazepin-5-one] showed an IC50 of 10.1 nM.

With `N#Cc1ccc2c(c1)NC(=O)c1c(Nc3ccc(Cl)c(O)c3)ccnc1N2` [Example 11, 4-[(4-Chloro-3-hydroxyphenyl)amino]-5-oxo-6,11-dihydro-5H-pyrido[2,3-b][1,5]benzodiazepine-8-carbonitrile], the IC50 was found to be 4.03 nM.

Molecule `COCCCNCc1ccc2c(c1)NC(=O)c1c(Nc3cc(O)ccc3C)ccnc1N2` [Example 129] came in with an IC50 of 3.99 nM.

`Cc1ccc(O)cc1Nc1ccnc2c1C(=O)Nc1cc(C(=O)NCc3cccc(Cl)c3)ccc1N2` [Example 225, N-(3-Chlorobenzyl)-4-[(5-hydroxy-2-methylphenyl)amino]-5-oxo-6,11-dihydro-5H-pyrido[2,3-b][1,5]benzodiazepine-8-carboxamide] displayed an IC50 of 14.1 nM.

In turn, `CCN(Cc1ccc2c(c1)NC(=O)c1c(Nc3cc(O)c(C)cc3F)ccnc1N2)CC(C)O` (single isomer, unassigned; ent-8) [Example 206, ent-8-{[Ethyl(2-hydroxypropyl)amino]methyl}-4-[(2-fluoro-5-hydroxy-4-methylphenyl)amino]-6,11-dihydro-5H-pyrido[2,3-b][1,5]benzodiazepin-5-one (Enantiomer 2)] displayed an IC50 of 1.55 nM.

In the case of `N#Cc1ccc2c(c1)NC(=O)c1c(Nc3cc(O)c(Cl)cc3Cl)ccnc1N2` [Example 10, 4-[(2,4-Dichloro-5-hydroxyphenyl)amino]-5-oxo-6,11-dihydro-5H-pyrido[2,3-b][1,5]benzodiazepine-8-carbonitrile], 65.9 nM corresponded to half-maximal inhibition (IC50).

`Cc1ccc(O)cc1Nc1ccnc2c1C(=O)Nc1cc(CNc3ccccc3F)ccc1N2` [Example 147]: inhibition was half-maximal at 52.9 nM (IC50).

For `Cc1ccc(O)cc1Nc1ccnc2c1C(=O)Nc1cc(CNCc3ccc(Cl)nc3)ccc1N2` [Example 95], the IC50 was 1.95 nM.

`Cc1cc(F)c(Nc2ccnc3c2C(=O)Nc2cc(C#N)ccc2N3)cc1O` [Example 27, 4-[(2-Fluoro-5-hydroxy-4-methylphenyl)amino]-5-oxo-6,11-dihydro-5H-pyrido[2,3-b][1,5]benzodiazepine-8-carbonitrile] showed a half-maximal inhibitory concentration (IC50) of 15.3 nM.

The molecule `Cc1ccc(O)cc1Nc1ccnc2c1C(=O)Nc1cc(CNc3ccccc3)ccc1N2` [Example 26, 8-Anilinomethyl-4-[(5-hydroxy-2-methylphenyl)amino]-6,11-dihydro-5H-pyrido[2,3-b][1,5]benzodiazepin-5-one] registered a concentration for half-maximal inhibition (IC50) of 60.3 nM.

On to `Cc1cc(F)c(Nc2ccnc3c2C(=O)Nc2cc(CNC(C)C)ccc2N3)cc1O` [Example 48, 4-[(2-Fluoro-5-hydroxy-4-methylphenyl)amino]-8-[(isopropylamino)methyl]-6,11-dihydro-5H-pyrido[2,3-b][1,5]benzodiazepin-5-one], for which the IC50 stood at 1.01 nM.

As for `Cc1cc(F)c(Nc2ccnc3c2C(=O)Nc2cc(CNC4CCCC4)ccc2N3)cc1O` [Example 226, 8-[(Cyclopentylamino)methyl]-4-[(2-fluoro-5-hydroxy-4-methylphenyl)amino]-6,11-dihydro-5H-pyrido[2,3-b][1,5]benzodiazepin-5-one], the IC50 stood at 1.09 nM.

The molecule `CCOC(=O)Nc1ccc(Nc2ccnc3c2C(=O)Nc2cc(C#N)ccc2N3)cc1O` [Example 4, Ethyl {4-[(8-cyano-5-oxo-6,11-dihydro-5H-pyrido[2,3-b][1,5]benzodiazepin-4-yl)amino]-2-hydroxyphenyl}carbamate] yielded an IC50 of 352 nM.

Regarding `Cc1cc(F)c(Nc2ccnc3c2C(=O)Nc2cc(CN4CCC(N)CC4)ccc2N3)cc1O` [Example 218, 8-[(4-Aminopiperidin-1-yl)methyl]-4-[(2-fluoro-5-hydroxy-4-methylphenyl)amino]-6,11-dihydro-5H-pyrido[2,3-b][1,5]benzodiazepin-5-one], the IC50 amounted to 1.06 nM.

Staying with this experiment, now noted: 10 μM ATP; some mean values from multiple determinations; hydrochloride.
`CCN(CC)Cc1ccc2c(c1)NC(=O)c1c(Nc3cc(O)c(C)cc3F)ccnc1N2` [Example 193, 8-[(Diethylamino)methyl]-4-[(2-fluoro-5-hydroxy-4-methylphenyl)amino]-6,11-dihydro-5H-pyrido[2,3-b][1,5]benzodiazepin-5-one hydrochloride] had an IC50 of 3.22 nM.
